The source of these data is patent US20210253626A1, “PRODRUGS OF FULVESTRANT” (KASHIV BIOSCIENCES, LLC, priority 2018, published 2021).

In brackets after ≈: the same amount, converted by molar mass. Structures can show the parent of a compound that is named as a salt. Where two headings read alike, the source gives them in different places.

A short description of series [1]: physchem. The settings on record: thermodynamic from solid.
Description: Solubility Test Procedure II:
Stock solutions of the test compounds and fulvestrant were prepared in phosphate buffered saline (PBS) pH 7.4 and sodium acetate buffer pH 4.0, which was incubated for 24 h at room temperature with constant mixing at 100 rpm in the same tube. After incubation, the tubes were centrifuged for 20 min. at 10000 rpm. Later 200 μL of sample was taken and filtered. The filtrate was analysed by HPLC-UV against 0.0012 mg/ml, 0.037 mg/mL, 0.3 mg/ml, 0.1 mg/ml and 1 mg/ml of dimethylsulfoxide (DMSO) stock.
Solubility (μg/ml)=[Peak area of sample/Peak area of standard]×Concentration of standard % Aqueous solubility: [Test solubility (μg/ml)/incubation concentration (μg/ml)]×100
The conditions of series [2]: 4 h, pH 7.4.
Description: Solubility Test Procedure I:
(§1) A 50 mmol stock solution for each test compound was prepared using dimethyl sulfoxide. From this stock solution, a working solution of 1 mmol was prepared by diluting with dimethyl sulfoxide. The working solution of 1 mmol was then serially diluted using dimethyl sulfoxide. Then, 5-20 μl of stock solution is added to 1 ml of phosphate buffer solution of pH 7.4. The solution was then stirred for 4 h at 25° C. in order to reach equilibrium. After this incubation period, the solution was filtered using 0.45 micron PVDF injector filters to remove the insoluble fraction of the compound and subsequently filtrate is taken for quantification using UV Detector. The concentration of test sample was calculated using the linearity/calibration curve.
Series [3] is described as follows: physchem. The settings on record: 25 °C, pH 7.4, aqueous buffer, kinetic from dmso stock.
Description: Solubility Test Procedure I:
as §1
A short description of series [4]: Kinetic solubility (Solubility Test Procedure I). The settings on record: for Increase in solubility compare to fulvestrant (Fold): kinetic aqueous solubility at pH 7.4; for solubility at 4 h: phosphate buffer, 25 °C, pH 7.4, aqueous buffer, kinetic from dmso stock.
Description: Solubility Test Procedure I:
as §1
Setting [5] is: pH 4, aqueous buffer, Thermodynamic solubility (mg/mL) pH 4.0, sodium acetate buffer pH 4.0, 24 h room temperature, test compound concentration 1 mg/mL.

A word on the thermodynamic solubility: it is the concentration in solution at equilibrium with solid. Consider `C[C@]12CC[C@@H]3c4ccc(OP(=O)(O)O)cc4C[C@@H](CCCCCCCCC[S+]([O-])CCCC(F)(F)C(F)(F)F)[C@H]3[C@@H]1CC[C@@H]2O` (stereo partly drawn) [Example 20, (7R,8R,9S,13S,14S,17S)-17-hydroxy-13-methyl-7-(9-((4,4,5,5,5-pentafluoropentyl)sulfinyl)nonyl)-7,8,9,11,12,13,14,15,16,17-decahydro-6H-cyclopenta[a]phenanthren-3-yl dihydrogen phosphate], for which the thermodynamic solubility in “physchem [1]” (pH 4, aqueous buffer) turned out to be 740 µg/mL; in “physchem [1]” (pH 7.4, aqueous buffer), 1220 µg/mL. As usually defined, the solubility is the concentration that dissolves in the medium under given conditions. A higher solubility goes with a readily soluble substance. With `CN(C)CC(=O)Oc1ccc2c(c1)C[C@@H](CCCCCCCCC[S+]([O-])CCCC(F)(F)C(F)(F)F)[C@@H]1[C@@H]2CC[C@]2(C)[C@@H](O)CC[C@@H]12` (stereo partly drawn) [Example 1, (7R,8R,9S,13S,14S,17S)-17-hydroxy-13-methyl-7-(9-((4,4,5,5,5-pentafluoropentyl)sulfinyl)nonyl)-7,8,9,11,12,13,14,15,16,17-decahydro-6H-cyclopenta[a]phenanthren-3-yl dimethylglycinate], the “Increase in solubility compare to fulvestrant (Fold)” value (from here on “Increase … (Fold)”) in series [2] is on record as 8 Fold. Further, the concentration in solution in the series “physchem [3]” (solubility at 4 h) came to 0.04 µM (≈ 0.0277 µg/mL). Take `C[C@]12CCC3c4ccc(OCOP(=O)(O)O)cc4C[C@@H](CCCCCCCCC[S+]([O-])CCCC(F)(F)C(F)(F)F)[C@H]3[C@@H]1CC[C@@H]2O` (stereo partly drawn) [Example 44, ((7R,8R,13S,14S,17S)-17-hydroxy-13-methyl-7-(9-(4,4,5,5,5-pentafluoropentylsulfinyl)nonyl)-7,8,9,11,12,13,14,15,16,17-decahydro-6H-cyclopenta[a]phenanthren-3-yloxy)methyl dihydrogen phosphate]: the solubility (thermodynamic) at 24 h in the series “physchem [1]” (pH 4, aqueous buffer) is greater than 1000 µg/mL; in “physchem [1]” (pH 7.4, aqueous buffer) it was greater than 15000 µg/mL. For `CN1CCN(C(=O)Oc2ccc3c(c2)C[C@@H](CCCCCCCCC[S+]([O-])CCCC(F)(F)C(F)(F)F)[C@@H]2[C@@H]3CC[C@]3(C)[C@@H](O)CC[C@@H]23)CC1` (stereo partly drawn) [Example 4, (7R,8R,9S,13S,14S,17S)-17-hydroxy-13-methyl-7-(9-((4,4,5,5,5-pentafluoropentyl)sulfinyl)nonyl)-7,8,9,11,12,13,14,15,16,17-decahydro-6H-cyclopenta[a]phenanthren-3-yl 4-methylpiperazine-1-carboxylate], the thermodynamic solubility at 24 h in “physchem [1]” (setting [5]) is 790 µg/mL (≈ 1080 µM). Moreover, in series [4], the “Increase … (Fold)” value is 97 Fold and the solubility at 4 h is 0.5 µM (≈ 0.366 µg/mL). Take `C[C@]12CC[C@@H]3c4ccc(OC(=O)c5ccccc5O)cc4C[C@@H](CCCCCCCCC[S+]([O-])CCCC(F)(F)C(F)(F)F)[C@H]3[C@@H]1CC[C@@H]2O` (stereo partly drawn) [Example 6, (7R,8R,9S,13S,14S,17S)-17-hydroxy-13-methyl-7-(9-((4,4,5,5,5-pentafluoropentyl)sulfinyl)nonyl)-7,8,9,11,12,13,14,15,16,17-decahydro-6H-cyclopenta[a]phenanthren-3-yl 2-hydroxybenzoate]: in series [4], the “Increase … (Fold)” value is listed as 562 Fold and the solubility at 4 h came out at 2.7 µM (≈ 1.96 µg/mL). On the same counts, the results for `CCOP(=O)(OCC)Oc1ccc2c(c1)C[C@@H](CCCCCCCCC[S+]([O-])CCCC(F)(F)C(F)(F)F)[C@@H]1[C@@H]2CC[C@]2(C)[C@@H](O)CC[C@@H]12` (stereo partly drawn) [Example 7, diethyl ((7R,8R,9S,13S,14S,17S)-17-hydroxy-13-methyl-7-(9-((4,4,5,5,5-pentafluoropentyl)sulfinyl)nonyl)-7,8,9,11,12,13,14,15,16,17-decahydro-6H-cyclopenta[a]phenanthren-3-yl) phosphate] are 35 Fold and 0.2 µM. Consider `CN1CCC(CC(=O)Oc2ccc3c(c2)C[C@@H](CCCCCCCCC[S+]([O-])CCCC(F)(F)C(F)(F)F)[C@@H]2[C@@H]3CC[C@]3(C)[C@@H](O)CC[C@@H]23)CC1` (stereo partly drawn) [Example 15, (7R,8R,9S,13S,14S,17S)-17-hydroxy-13-methyl-7-(9-((4,4,5,5,5-pentafluoropentyl)sulfinyl)nonyl)-7,8,9,11,12,13,14,15,16,17-decahydro-6H-cyclopenta[a]phenanthren-3-yl 2-(1-methylpiperidin-4-yl)acetate], for which the thermodynamic solubility at 24 h in “physchem [1]” (pH 4, aqueous buffer) came to 630 µg/mL (≈ 845 µM). Regarding `C[C@]12CC[C@@H]3c4ccc(OP(=O)(O)O)cc4C[C@@H](CCCCCCCCC[S+]([O-])CCCC(F)(F)C(F)(F)F)[C@H]3[C@@H]1CC[C@@H]2O` (stereo partly drawn) [Example 21, (7R,8R,9S,13S,14S,17S)-17-hydroxy-13-methyl-7-(9-((4,4,5,5,5-pentafluoropentyl)sulfinyl)nonyl)-7,8,9,11,12,13,14,15,16,17-decahydro-6H-cyclopenta[a]phenanthren-3-yl dihydrogen phosphate disodium], in “physchem [1]” (pH 7.4, aqueous buffer, Thermodynamic solubility (mg/mL) pH 7.4, PBS pH 7.4, 24 h room temperature, test compound concentration 5 mg/mL), the solubility (thermodynamic) at 24 h was greater than 5000 µg/mL. For the compound `C[C@]12CC[C@@H]3c4ccc(OC(=O)CN5CCCCC5)cc4C[C@@H](CCCCCCCCC[S+]([O-])CCCC(F)(F)C(F)(F)F)[C@H]3[C@@H]1CC[C@@H]2O` (stereo partly drawn) [Example 3, (7R,8R,9S,13S,14S,17S)-17-hydroxy-13-methyl-7-(9-((4,4,5,5,5-pentafluoropentyl)sulfinyl)nonyl)-7,8,9,11,12,13,14,15,16,17-decahydro-6H-cyclopenta[a]phenanthren-3-yl 2-(piperidin-1-yl)acetate hydrochloride], in series [4], the “Increase … (Fold)” value is 669 Fold and the solubility at 4 h turned out to be 3.3 µM. As to `CC(C)[C@H](NC(=O)Oc1ccc2c(c1)C[C@@H](CCCCCCCCC[S+]([O-])CCCC(F)(F)C(F)(F)F)[C@@H]1C2CC[C@]2(C)[C@@H](O)CC[C@@H]12)C(=O)O` (stereo partly drawn) [Example 45, (2S)-2-(((7R,8R,13S,14S,17S)-17-hydroxy-13-methyl-7-(9-(4,4,5,5,5-pentafluoropentylsulfinyl)nonyl)-7,8,9,11,12,13,14,15,16,17-decahydro-6H-cyclopenta[a]phenanthren-3-yloxy)carbonylamino)-3-methylbutanoic acid], the thermodynamic solubility in “physchem [1]” (pH 7.4, aqueous buffer) was found to be 1250 µg/mL (≈ 1670 µM). For `CN1CCCN(C(=O)Oc2ccc3c(c2)C[C@@H](CCCCCCCCC[S+]([O-])CCCC(F)(F)C(F)(F)F)[C@@H]2[C@@H]3CC[C@]3(C)[C@@H](O)CC[C@@H]23)CC1` (stereo partly drawn) [Example 19, (7R,8R,9S,13S,14S,17S)-17-hydroxy-13-methyl-7-(9-((4,4,5,5,5-pentafluoropentyl)sulfinyl)nonyl)-7,8,9,11,12,13,14,15,16,17-decahydro-6H-cyclopenta[a]phenanthren-3-yl 4-methyl-1,4-diazepane-1-carboxylate], the solubility (thermodynamic) at 24 h in “physchem [1]” (pH 4, aqueous buffer, Thermodynamic solubility (mg/mL) pH 4.0, sodium acetate buffer pH 4.0, 24 h room temperature, test compound concentration 2 mg/mL) stood at 1050 µg/mL (≈ 1410 µM). In the series “physchem [1]” (setting [5]), `C[C@]12CC[C@@H]3c4ccc(OC(=O)N5CCC(N6CCCCC6)CC5)cc4C[C@@H](CCCCCCCCC[S+]([O-])CCCC(F)(F)C(F)(F)F)[C@H]3[C@@H]1CC[C@@H]2O` (stereo partly drawn) [Example 9, (7R,8R,9S,13S,14S,17S)-17-hydroxy-13-methyl-7-(9-((4,4,5,5,5-pentafluoropentyl)sulfinyl)nonyl)-7,8,9,11,12,13,14,15,16,17-decahydro-6H-cyclopenta[a]phenanthren-3-yl[1,4′-bipiperidine]-1′-carboxylate] had a solubility (thermodynamic) at 24 h of 700 µg/mL (≈ 874 µM). In addition, in series [4], the “Increase … (Fold)” value is reported as 22 Fold and the solubility at 4 h turned out to be 0.1 µM (≈ 0.0801 µg/mL).
